Values of other authors in patent US10570425B2, “Engineered cyanobacterium and its application for producing acetate” (National Tsing Hua University, priority 2017, dated 2020).

Assays:
[1] = test system: padA; details: substrate of padA as titled, Table 5
[2] = test system: phenylacetaldehyde dehydrogenase (PadA); details: substrate of padA, Table 4
[3] = target: acetaldehyde dehydrogenase B (AldB) (Escherichia coli, UniProt P37685); details: substrate of aldB
[4] = target: 3-hydroxypropionaldehyde dehydrogenase (AldH) (Escherichia coli, UniProt P23883); details: substrate of AldH
[5] = test system: phosphate acetyltransferases (Pta and EutD); details: Acetyl-CoA forming reaction; for kcat/KmAc-P: substrate Ac-P; for kcat/KmCoA: substrate CoA

acetaldehyde dehydrogenase B (AldB), sequence (P37685 whole entry): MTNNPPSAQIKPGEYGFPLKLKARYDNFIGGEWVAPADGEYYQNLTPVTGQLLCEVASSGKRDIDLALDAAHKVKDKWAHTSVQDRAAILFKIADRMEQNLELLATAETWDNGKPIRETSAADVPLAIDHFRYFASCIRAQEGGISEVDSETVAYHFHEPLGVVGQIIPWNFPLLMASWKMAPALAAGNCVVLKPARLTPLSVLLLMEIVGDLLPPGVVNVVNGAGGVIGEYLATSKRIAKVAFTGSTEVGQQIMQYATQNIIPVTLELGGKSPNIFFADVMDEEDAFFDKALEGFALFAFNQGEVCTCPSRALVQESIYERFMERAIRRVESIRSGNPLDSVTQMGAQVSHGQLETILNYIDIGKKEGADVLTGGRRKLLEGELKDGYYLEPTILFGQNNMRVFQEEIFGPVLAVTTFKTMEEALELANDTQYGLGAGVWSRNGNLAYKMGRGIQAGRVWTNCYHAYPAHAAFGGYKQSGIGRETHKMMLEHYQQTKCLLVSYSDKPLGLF
3-hydroxypropionaldehyde dehydrogenase (AldH), sequence (P23883 whole entry): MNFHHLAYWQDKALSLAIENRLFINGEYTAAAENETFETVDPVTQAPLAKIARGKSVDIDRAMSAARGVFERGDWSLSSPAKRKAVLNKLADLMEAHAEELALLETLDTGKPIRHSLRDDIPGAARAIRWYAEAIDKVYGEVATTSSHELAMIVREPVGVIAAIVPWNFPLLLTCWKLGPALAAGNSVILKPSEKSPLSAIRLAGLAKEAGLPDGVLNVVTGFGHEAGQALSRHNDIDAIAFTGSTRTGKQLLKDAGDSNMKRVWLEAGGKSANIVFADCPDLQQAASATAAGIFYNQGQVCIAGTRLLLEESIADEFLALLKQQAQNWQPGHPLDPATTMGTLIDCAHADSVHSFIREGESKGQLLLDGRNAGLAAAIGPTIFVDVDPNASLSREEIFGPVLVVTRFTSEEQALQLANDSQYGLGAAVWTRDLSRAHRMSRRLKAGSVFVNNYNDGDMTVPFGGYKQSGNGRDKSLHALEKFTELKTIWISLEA

Row | Molecule | Km [1] [µM] | Km [2] [µM] | Km [3] [µM] | Km [4] [µM] | kcat/KmAc-P [5] [sec^−1μM^−1] | kcat/KmCoA [5] [sec^−1μM^−1]
1 | CC=O [Acetaldehyde] | 15200 | 2150 | 2.5 | 1000 |  | 
2 | O=CCCl [Chloroacetaldehyde] |  |  | 3.6 |  |  | 
3 | O=Cc1ccccc1 [Benzaldehyde] | 150 | 8 |  |  |  | 
4 | O=CCCO [3-Hydroxypropionaldehyde] |  |  |  | 490 |  | 
5 | CCC=O [Propionaldehyde] | 240 | 11.6 | 5.8 | 1210 |  | 
6 | Ec-eutD: phosphate acetyltransferase EutD from Escherichia coli |  |  |  |  | 1.3 | 12.6
7 | Ec-pta: phosphate acetyltransferase Pta from Escherichia coli (protein, UniProt P0A9M8 2-714, looked up) Phosphate acetyltransferase: SRIIMLIPTGTSVGLTSVSLGVIRAMERKGVRLSVFKPIAQPRTGGDAPDQTTTIVRANSSTTTAAEPLKMSYVEGLLSSNQKDVLMEEIVANYHANTKDAEVVLVEGLVPTRKHQFAQSLNYEIAKTLNAEIVFVMSQGTDTPEQLKERIELTRNSFGGAKNTNITGVIVNKLNAPVDEQGRTRPDLSEIFDDSSKAKVNNVDPAKLQESSPLPVLGAVPWSFDLIATRAIDMARHLNATIINEGDINTRRVKSVTFCARSIPHMLEHFRAGSLLVTSADRPDVLVAACLAAMNGVEIGALLLTGGYEMDARISKLCERAFATGLPVFMVNTNTWQTSLSLQSFNLEVPVDDHERIEKVQEYVANYINADWIESLTATSERSRRLSPPAFRYQLTELARKAGKRIVLPEGDEPRTVKAAAICAERGIATCVLLGNPAEINRVAASQGVELGAGIEIVDPEVVRESYVGRLVELRKNKGMTETVAREQLEDNVVLGTLMLEQDEVDGLVSGAVHTTANTIRPPLQLIKTAPGSSLVSSVFFMLLPEQVYVYGDCAINPDPTAEQLAEIAIQSADSAAAFGIEPRVAMLSYSTGTSGAGSDVEKVREATRLAQEKRPDLMIDGPLQYDAAVMADVAKSKAPNSPVAGRATVFIFPDLNTGNTTYKAVQRSADLISIGPMLQGMRKPVNDLSRGALVDDIVYTIALTAIQSAQQQ |  |  |  |  | 0.25 | 3.4
